# Measurements: ChEMBL document CHEMBL2203104, “Recent advances in antitubercular natural products” (Eur J Med Chem, 2012)
# What was measured:
# [1] = test system: Mycobacterium tuberculosis; test: Antimycobacterial activity against Mycobacterium tuberculosis H37Ra; type: functional
# [2] = Selectivity index, ratio of IC50 for african green monkey Vero cells to MIC for Mycobacterium tuberculosis H37Ra; type: functional
# [3] = test system: Vero; test: Cytotoxicity against african green monkey Vero cells; type: cell-based; conditions: Chlorocebus sabaeus
# [4] = test system: Mycobacterium tuberculosis; test: Antimycobacterial activity against Mycobacterium tuberculosis at 128 ug/mL; type: functional; conditions: read-out: GI
# [5] = test system: Mycobacterium tuberculosis; test: Antimycobacterial activity against Mycobacterium tuberculosis 90-221387; type: functional
# [6] = test system: Mycobacterium tuberculosis; test: Antimycobacterial activity against Mycobacterium tuberculosis isolate no. 246; type: functional
# [7] = test system: Mycobacterium tuberculosis; test: Antimycobacterial activity against Mycobacterium tuberculosis H37Rv; type: functional; conditions: Mycobacterium tuberculosis, H37Rv; read-out: MIC
# [8] = target: T1, 3-oxoacyl-[acyl-carrier-protein] synthase 1 (Mycobacterium tuberculosis, UniProt P9WQD9); test: Inhibition of Mycobacterium tuberculosis H37Rv Fab1
# T1 sequence (P9WQD9 whole entry): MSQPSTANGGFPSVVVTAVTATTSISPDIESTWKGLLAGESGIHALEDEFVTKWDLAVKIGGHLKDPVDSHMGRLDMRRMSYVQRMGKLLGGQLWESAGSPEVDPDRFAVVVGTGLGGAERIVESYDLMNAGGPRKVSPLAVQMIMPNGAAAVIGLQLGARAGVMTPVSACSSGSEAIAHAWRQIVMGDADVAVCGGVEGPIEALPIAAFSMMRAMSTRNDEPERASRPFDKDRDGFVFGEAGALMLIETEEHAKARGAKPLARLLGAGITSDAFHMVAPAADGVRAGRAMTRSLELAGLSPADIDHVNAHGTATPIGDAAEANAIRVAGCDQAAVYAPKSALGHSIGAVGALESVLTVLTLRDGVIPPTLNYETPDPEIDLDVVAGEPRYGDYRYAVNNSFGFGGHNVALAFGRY
# [9] = test system: Mycobacterium tuberculosis; test: Growth inhibition of Mycobacterium tuberculosis H37Rv at 6.25 ug/ml; type: functional; conditions: read-out: GI
# [10] = Inhibition of Mycobacterium tuberculosis RNA polymerase
# [11] = test system: Mycobacterium tuberculosis; test: Antimycobacterial activity against Mycobacterium tuberculosis isolate CIBIN/UMF 15:19; type: functional
# [12] = test system: Mycobacterium tuberculosis; test: Antimycobacterial activity against Mycobacterium tuberculosis H37Rv ATCC 27294; type: functional
# [13] = Selectivity index, ratio of IC50 for african green monkey Vero cells to MIC for Mycobacterium tuberculosis H37Rv; type: functional
# [14] = test system: Mycobacterium tuberculosis; test: Antimycobacterial activity against Mycobacterium tuberculosis H242; type: functional
# [15] = test system: Mycobacterium tuberculosis; test: Antimycobacterial activity against Mycobacterium tuberculosis Erdman by microplate alamar blue assay; type: functional
# [16] = test system: Mycobacterium tuberculosis; test: Antimycobacterial activity against Mycobacterium tuberculosis H37Rv under aerobic condition; type: functional
# [17] = test system: Mycobacterium tuberculosis; test: Antimycobacterial activity against Mycobacterium tuberculosis H37Rv under anaerobic condition; type: functional
# [18] = test system: Mycobacterium tuberculosis; test: Antimycobacterial activity against Mycobacterium tuberculosis H37Rv by liquid microdilution method; type: functional
# [19] = test system: Mycobacterium tuberculosis; test: Antimycobacterial activity against Mycobacterium tuberculosis H37Rv isolate WC 51/02; type: functional
# [20] = Selectivity index, ratio of CC50 for lymphocytes to MIC for Mycobacterium tuberculosis H37Rv isolate WC 64/02; type: functional
# [21] = test system: Mycobacterium tuberculosis; test: Antimycobacterial activity against Mycobacterium tuberculosis H37Rv isolate WC 64/02; type: functional
# [22] = Selectivity index, ratio of CC50 for lymphocytes to MIC for Mycobacterium tuberculosis H37Rv isolate WC 51/02; type: functional
structure (smiles),measurement,setting,value
COC1=CC(=O)c2c(cc(OC)c(C(C)OC(C)=O)c2O)C1=O (configuration not stated),MIC,[1],0.39 µg/mL
same,Selectivity Index,[2],<1
same,IC50,[3],0.33 µg/mL
C=C(C)[C@H]1CC[C@@H]2C(=O)O[C@H]3[C@@H]2O[C@@]2(O[C@@H]1C(=O)[C@@]1(C)O[C@@H]21)[C@@H]3C(=C)C [BIPINNAPTEROLIDE B],inhibition of growth at 128 µg/mL,[4],66%
COc1cc([C@H]2O[C@@]3(c4cc(OC)c5c(c4)OCO5)O[C@@]3(C)[C@@H]2C)cc2c1OCO2 [BEILSCHMIN D],MIC,[5],50 µg/mL
CC[C@@H](CO)NCCN[C@@H](CC)CO [ETHAMBUTOL],MIC,[5],6.2 µg/mL
CCCCCC(CC(=O)N1N=CCCC1C(=O)N[C@H]1COC(=O)[C@H]2CCCNN2C(=O)[C@H](C)NC(=O)[C@@H](CC(C)C)NC1=O)C(=O)O (some centres not stated) [LYDIAMYCIN A],MIC,[6],25 µg/mL
same,MIC,[7],12.5 µg/mL
COc1cc([C@H]2O[C@@]3(c4cc(OC)c(OC)c(OC)c4)O[C@@]3(C)[C@@H]2C)cc(OC)c1OC,MIC,[5],40 µg/mL
CCCCCCCc1cc(O)c(CCCCCC)c(=O)o1 [PSEUDOPYRONINES B],IC50,[8],3.8 µM
same,MIC,[7],0.78 µg/mL
C[C@@H]1CC[C@@H]2[C@@H](C)C[C@@H](C(=O)/C=C\O)[C@]2(O)C1=O [ELISABETHIN H],inhibition of growth at 6.25 µg/mL,[9],51%
CCC/C(C)=C/C=C(\C)C(=O)c1c(O)cc([C@H](C)CC/C=C/NC(=O)OC)oc1=O [MYXOPORIN A],IC50,[10],1 µM
C#C[C@@]12O[C@]1(C=O)[C@]1(C)CC[C@H]3C(C)(C)CCC[C@]3(C)[C@H]1CC2=O [ESCOBARINE A],MIC,[11],12.5 µg/mL
same,MIC,[12],25 µg/mL
Cc1cc(O)cc2c1C[C@@H]1C[C@@H](O)[C@]3(C)Oc4cc(O)cc(C)c4C[C@@H]3CC(C)(C)/C=C/C[C@@]1(C)C2 [RAMIFERIN],MIC,[1],12.7 µM
same,Selectivity Index,[2],0.7
same,IC50,[3],9.7 µM
C#C[C@@]12O[C@]1(CO)[C@]1(C)CC[C@H]3C(C)(C)CCC[C@]3(C)[C@H]1CC2=O [ESCOBARINE B],MIC,[11],50 µg/mL
same,MIC,[12],50 µg/mL
C/C=C/C/C=C(\C)C(O)CC/C(C)=C/C=C(\C)C(=O)c1c(O)cc([C@H](C)CC/C=C/NC(=O)OC)oc1=O (some centres not stated) [CORALLOPYRONIN A],IC50,[10],4 µM
C=C(CC[C@@H](C)[C@H]1CC[C@H]2[C@@H]3C(C=O)=C4C[C@@H](O)CC[C@]4(C)[C@H]3CC[C@]12C)C(C)C [PARGUESTEROL A],IC50,[3],52 µg/mL
same,Selectivity Index,[13],<7
same,MIC,[7],7.8 µg/mL
COc1ccc(C(=O)OC2=C(C(C)C)C(=O)C3=C(C2=O)[C@@]2(C)CCCC(C)(C)[C@@H]2[C@H](O)[C@H]3OC(C)=O)cc1,IC50,[3],2.58 µg/mL
same,MIC,[7],3.12 µg/mL
C=C(CC[C@@H](C)[C@H]1CC[C@H]2[C@@H]3C(C=O)[C@]4(O)C[C@@H](O)CC[C@]4(C)[C@H]3CC[C@]12C)C(C)C (some centres not stated) [PARGUESTEROL B],IC50,[3],52 µg/mL
same,Selectivity Index,[13],<7
same,MIC,[7],11.2 µg/mL
CC(=O)O[C@H]1C[C@]2(C)[C@@H](C(C)C)CC[C@H]2[C@]23C[C@H]2[C@](C)(O)CC[C@]13C [AZORELLANOL],MIC,[11],12.5 µg/mL
same,MIC,[12],12.5 µg/mL
C/C(=C\Cc1ccccc1)CC[C@@]1(O)C[C@H]2C[C@@H](C/C(C)=C/C/C=C/C/C(CC(=O)O)=C\C(=O)O2)O1 [RIPOSTATIN A],IC50,[10],0.8 µM
CC(C)[C@H]1CC[C@@H]2[C@]1(C)CC(=O)[C@@]1(C)CC[C@@](C)(O)[C@@H]3C[C@@]231 [AZORELLANONE],MIC,[11],12.5 µg/mL
same,MIC,[12],12.5 µg/mL
C=C[C@@]1(C)[C@H](Cl)C[C@@H]2C(C)(C)c3cccc4[nH]c5c(c34)[C@@]2(O)[C@]1(C#N)[C@@]1(CO1)C5(C)C [FISCHAMBIGUINE B],IC50,[3],128 µM
same,Selectivity Index,[13],64
same,MIC,[7],2 µM
CC(C)=CCC/C(C)=C/CC/C(C)=C/CC/C=C(\C)CC/C=C(\C)CCC=C(C)C [SQUALENE],MIC,[5],28 µg/mL
CCCCCCCC/C=C\CCCCCCCCCCCCCCCC[C@@H](O)C(=O)N[C@@H](CO[C@@H]1O[C@H](CO)[C@H](O)[C@H](O)[C@H]1O)[C@H](O)[C@H](O)CCC/C=C\CCCCCCCCC,MIC,[14],40 µg/mL
same,MIC,[7],40 µg/mL
COc1cc([C@H]2O[C@@H](c3cc(OC)c(OC)c(OC)c3)[C@@H](C)[C@@H]2C)cc(OC)c1OC [BEILSCHMIN B],MIC,[5],7.5 µg/mL
CCCCOC(=O)[C@]12CC[C@@]3(C)C[C@H]4O[C@@]4(C)[C@H]4O[C@H]4[C@H]3[C@@H]1CC[C@@H]2C(C)C,MIC,[11],6.25 µg/mL
same,MIC,[12],6.25 µg/mL
C=CC(O)C#CC#CC(O)/C=C\CCCCCCCCOC(C)=O (configuration not stated),MIC,[7],25.3 µg/mL
same,MIC,[15],1.4 µg/mL
COc1cc([C@H]2O[C@@]3(c4cc(OC)c5c(c4)OCO5)O[C@@]3(C)[C@@H]2C)cc(OC)c1OC,MIC,[5],30 µg/mL
C=C(C)[C@@H]1CCC2=C[C@@H](OC2=O)C2=C(C)C[C@](O)(C2=O)[C@H](C)[C@@H](O)C1=O [CORALLOLIDE B],inhibition of growth at 128 µg/mL,[4],95%
CC(=O)OC[C@@]12CC[C@]3(C)[C@@H](C(C)C)CC[C@H]3[C@@]13C[C@H]3[C@](C)(O)CC2,MIC,[11],12.5 µg/mL
same,MIC,[12],12.5 µg/mL
CC(C)[C@@H](C)/C=C/[C@@H](C)[C@H]1CC[C@@H]2[C@]1(C)CC[C@H]1[C@]23C=C[C@]2(C[C@@H](O)CC[C@]12C)OO3 [ERGOSTEROL PEROXIDE],Selectivity Index,[13],>57
same,MIC,[7],3.5 µM
CCCC/C=C/C#CC#CCCCCCCCC(=O)O [EXOCARPIC ACID],MIC,[1],20 µg/mL
same,MIC,[16],20 µg/mL
same,MIC,[17],87 µg/mL
O=C1c2cccnc2-c2nccc3c2c1nc1ccccc13 [ASCIDIDEMIN],IC50,[3],0.14 µM
same,Selectivity Index,[13],<1
same,MIC,[7],0.35 µM
CC[C@H](C)[C@@H](NC(=O)[C@@H](CCC(=O)O)NC(=O)[C@H](Cc1cnc[nH]1)NC(=O)[C@H](CC(C)C)NC(=O)[C@H](N)Cc1ccccc1)C(=O)N[C@H]1CCCCNC1=O [CALPINACTAM],MIC,[18],12.5 µg/mL
COc1cc([C@H]2O[C@@H](c3cc(OC)c4c(c3)OCO4)[C@@H](C)[C@@H]2C)cc(OC)c1OC [BEILSCHMIN A],MIC,[5],2.5 µg/mL
CCCOC(=O)[C@]12CC[C@@]3(C)CC[C@@](C)(O)C=C[C@H]3[C@@H]1CC[C@@H]2C(C)C,MIC,[11],6.25 µg/mL
same,MIC,[12],6.25 µg/mL
Cc1cc(O)c2c(c1)C(=O)C=CC2=O [RAMENTACEONE],MIC,[19],0.5 µg/mL
same,Selectivity Index,[20],<8
same,MIC,[21],0.5 µg/mL
same,Selectivity Index,[22],<8
CC(C)[C@H]1CC[C@H]2[C@@H]3C=C[C@](C)(O)CC[C@]3(C)CC[C@]12CO [MULINOL],MIC,[11],12.5 µg/mL
same,MIC,[12],12.5 µg/mL
